{"source": "patent US9226500B2", "about": "“Pesticidal compositions and processes related thereto” (Dow AgroSciences LLC, priority 2012, dated 2016)", "tested_on": "Beet Armyworm (Spodoptera exigua)", "test": "Bioassay on Beet Armyworm (BAW), 128-well diet tray assay", "type": "in vivo", "details": "Table 3, Assays Results Part 1", "procedure": "Certain molecules disclosed in this document were tested against BAW, CEW and CL using procedures described in the following examples. In the reporting of the results, the “BAW & CEW & CL Rating Table” was used (See Table Section).\nBioassays on BAW (Spodoptera exigua)\nBioassays on BAW were conducted using a 128-well diet tray assay. One to five second instar BAW larvae were placed in each well (3 mL) of the diet tray that had been previously filled with 1 mL of artificial diet to which 50 μg/cm^2 of the test compound (dissolved in 50 μL of 90:10 acetone-water mixture) had been applied (to each of eight wells) and then allowed to dry. Trays were covered with a clear self-adhesive cover, and held at 25° C., 14:10 light-dark for five to seven days. Percent mortality was recorded for the larvae in each well; activity in the eight wells was then averaged. The results are indicated in the tables entitled “Table 3: Assay Results Part 1” and “Table 4: Assay Results Part 2” (See Table Section)."}
{"smiles": "Cc1cc(/C=C/C(c2cc(Cl)c(F)c(Cl)c2)C(F)(F)F)ccc1C(=O)NCC(=O)NCC(F)(F)F", "note": "(centres unmarked) [AC69]", "values": [{"measurement": "BAW Rating", "value": "A (50-100)"}]}
{"smiles": "FC(F)(F)C(/C=C/c1ccc(-n2cncn2)cc1Cl)c1cc(Cl)c(Cl)c(Cl)c1", "note": "(centres unmarked) [DC66]", "values": [{"measurement": "BAW Rating", "value": "A (50-100)"}]}
{"smiles": "O=C(CC(F)(F)F)NCc1ccc(/C=C/C(c2cc(Cl)c(Cl)c(Cl)c2)C(F)(F)F)cc1C(F)(F)F", "note": "(centres unmarked) [CC24]", "values": [{"measurement": "BAW Rating", "value": "A (50-100)"}]}
{"smiles": "O=C(CC(F)(F)F)NCc1ccc(/C=C/C(c2cc(Cl)c(Cl)c(Cl)c2)C(F)(F)F)cc1", "note": "(centres unmarked) [CC6]", "values": [{"measurement": "BAW Rating", "value": "A (50-100)"}]}
{"smiles": "CC(=O)N1CCC(NC(=O)c2ccc(/C=C/C(c3cc(Cl)c(Cl)c(Cl)c3)C(F)(F)F)cc2Br)CC1", "note": "(centres unmarked) [AC103, (E)-N-(1-Acetylpiperidin-4-yl)-2-bromo-4-(4,4,4-trifluoro-3-(3,4,5-trichlorophenyl)but-1-en-1-yl)benzamide]", "values": [{"measurement": "BAW Rating", "value": "A (50-100)"}]}
{"smiles": "O=C(CNC(=O)c1ccc(/C=C/C(c2cc(Cl)cc(Cl)c2)C(F)(F)F)cc1F)NCC(F)(F)F", "note": "(centres unmarked) [AC62]", "values": [{"measurement": "BAW Rating", "value": "A (50-100)"}]}
{"smiles": "Cc1cc(/C=C/C(c2cc(Cl)c(Cl)c(Cl)c2)C(F)(F)F)cc(C#N)c1-n1cncn1", "note": "(centres unmarked) [DC45]", "values": [{"measurement": "BAW Rating", "value": "A (50-100)"}]}
{"smiles": "N#Cc1cc(/C=C/C(c2cc(Cl)cc(Cl)c2)C(F)(F)F)ccc1-n1cnc(N)n1", "note": "(centres unmarked) [DC38]", "values": [{"measurement": "BAW Rating", "value": "A (50-100)"}]}
{"smiles": "O=C(CNC(=O)c1ccc(/C=C/C(c2cc(Cl)c(Cl)c(Cl)c2)C(F)(F)F)cc1Br)NCC(F)(F)F", "note": "(centres unmarked) [AC66]", "values": [{"measurement": "BAW Rating", "value": "A (50-100)"}]}
{"smiles": "Cc1cc(/C=C/C(c2cc(Cl)cc(Cl)c2)C(F)(F)F)ccc1C(=O)NCC(=O)N(C)CC(F)(F)F", "note": "(centres unmarked) [AC51]", "values": [{"measurement": "BAW Rating", "value": "A (50-100)"}]}
{"smiles": "O=C(NC1CCc2cc(/C=C/C(c3cc(Cl)c(Cl)c(Cl)c3)C(F)(F)F)ccc21)C1CC1", "note": "(centres unmarked) [BC6]", "values": [{"measurement": "BAW Rating", "value": "A (50-100)"}]}
{"smiles": "O=C(NCc1ccc(Cl)nc1)c1ccc(/C=C/C(c2cc(Cl)c(Cl)c(Cl)c2)C(F)(F)F)cc1Cl", "note": "(centres unmarked) [AC28]", "values": [{"measurement": "BAW Rating", "value": "A (50-100)"}]}
{"smiles": "O=C(NC1CS(=O)(=O)C1)c1ccc(/C=C/C(c2cc(Cl)cc(Cl)c2)C(F)(F)F)cc1F", "note": "(centres unmarked) [AC83, (E)-4-(3-(3,5-Dichlorophenyl)-4,4,4-trifluorobut-1-en-1-yl)-N-(1,1-dioxidothietan-3-yl)-2-fluorobenzamide]", "values": [{"measurement": "BAW Rating", "value": "A (50-100)"}]}
{"smiles": "Fc1cc(F)cc(C(/C=C/c2ccc(-n3cncn3)cc2)C(F)(F)F)c1", "note": "(centres unmarked) [DC8]", "values": [{"measurement": "BAW Rating", "value": "A (50-100)"}]}
{"smiles": "O=C(CC(F)(F)F)NCc1ccc(/C=C/C(c2cc(Cl)c(Cl)c(Cl)c2)C(F)(F)F)cc1Br", "note": "(centres unmarked) [CC25]", "values": [{"measurement": "BAW Rating", "value": "A (50-100)"}]}
{"smiles": "Cc1cc(/C=C/C(c2cc(Cl)cc(Cl)c2)C(F)(F)F)ccc1C(=O)NCc1ccccc1F", "note": "(centres unmarked) [AC9]", "values": [{"measurement": "BAW Rating", "value": "A (50-100)"}]}
{"smiles": "FC(F)(F)c1cc(C(/C=C/c2ccc(-n3cncn3)cc2)C(F)(F)F)cc(C(F)(F)F)c1", "note": "(centres unmarked) [DC16]", "values": [{"measurement": "BAW Rating", "value": "A (50-100)"}]}
{"smiles": "O=C(NC1CCN(C2COC2)CC1)c1ccc(/C=C/C(c2cc(Cl)c(Cl)c(Cl)c2)C(F)(F)F)cc1Br", "note": "(centres unmarked) [AC108]", "values": [{"measurement": "BAW Rating", "value": "B (More than 0-Less than 50)"}]}
{"smiles": "CS(=O)(=O)CCC(=O)NCc1ccc(/C=C/C(c2cc(Cl)c(Cl)c(Cl)c2)C(F)(F)F)cc1Cl", "note": "(centres unmarked) [CC30, (E)-N-(2-Chloro-4-(4,4,4-trifluoro-3-(3,4,5-trichlorophenyl)but-1-en-1-yl)benzyl)-3-(methylsulfonyl)propanamide]", "values": [{"measurement": "BAW Rating", "value": "A (50-100)"}]}
{"smiles": "N#Cc1cc(/C=C\\C(c2cc(Cl)c(F)c(Cl)c2)C(F)(F)F)ccc1-n1cncn1", "note": "(centres unmarked) [DC46]", "values": [{"measurement": "BAW Rating", "value": "A (50-100)"}]}
{"smiles": "O=C(CNC(=O)c1ccc(/C=C/C(c2cc(Cl)c(F)c(Cl)c2)C(F)(F)F)cc1Br)NCC(F)(F)F", "note": "(centres unmarked) [AC79, (E)-2-Bromo-4-(3-(3,5-dichloro-4-fluorophenyl)-4,4,4-trifluorobut-1-en-1-yl)-N-(2-oxo-2-((2,2,2-trifluoroethyl)amino)ethyl)benzamide]", "values": [{"measurement": "BAW Rating", "value": "A (50-100)"}]}
{"smiles": "CONC(=O)CNC(=O)c1ccc(/C=C/C(c2cc(Cl)c(Cl)c(Cl)c2)C(F)(F)F)cc1Br", "note": "(centres unmarked) [AC110]", "values": [{"measurement": "BAW Rating", "value": "A (50-100)"}]}
{"smiles": "O=C(NCCc1ccc(Cl)nc1)c1ccc(/C=C/C(c2cc(Cl)c(Cl)c(Cl)c2)C(F)(F)F)cc1Br", "note": "(centres unmarked) [AC113]", "values": [{"measurement": "BAW Rating", "value": "B (More than 0-Less than 50)"}]}
{"smiles": "O=C(CNC(=O)c1ccc(/C=C/C(c2cc(Cl)c(F)c(Cl)c2)C(F)(F)F)cc1F)NCC(F)(F)F", "note": "(centres unmarked) [AC68]", "values": [{"measurement": "BAW Rating", "value": "A (50-100)"}]}
{"smiles": "Cc1cc(/C=C/C(c2cc(Cl)c(F)c(Cl)c2)C(F)(F)F)ccc1C(=O)NCc1ccnc(Cl)c1", "note": "(centres unmarked) [AC54]", "values": [{"measurement": "BAW Rating", "value": "A (50-100)"}]}
{"smiles": "O=C(CNC(=O)c1ccc(/C=C\\C(c2cc(Cl)c(Cl)c(Cl)c2)C(F)(F)F)cc1Br)NCC(F)(F)F", "note": "(centres unmarked) [AC95, (Z)-2-Bromo-N-(2-oxo-2-((2,2,2-trifluoroethyl)amino)ethyl)-4-(4,4,4-trifluoro-3-(3,4,5-trichlorophenyl)but-1-en-1-yl)benzamide]", "values": [{"measurement": "BAW Rating", "value": "A (50-100)"}]}
{"smiles": "Cc1cc(/C=C/C(c2ccc(Cl)c(Cl)c2)C(F)(F)F)ccc1C(=O)NCc1ccc(Cl)nc1", "note": "(centres unmarked) [AC37]", "values": [{"measurement": "BAW Rating", "value": "A (50-100)"}]}
{"smiles": "Cc1cc(/C=C/C(c2cc(Cl)cc(Cl)c2)C(F)(F)F)ccc1C(=O)NCc1nnc(C2CC2)o1", "note": "(centres unmarked) [AC89, (E)-N-((5-Cyclopropyl-1,3,4-oxadiazol-2-yl)methyl)-4-(3-(3,5-dichlorophenyl)-4,4,4-trifluorobut-1-en-1-yl)-2-methylbenzamide]", "values": [{"measurement": "BAW Rating", "value": "A (50-100)"}]}
{"smiles": "C/C(=C\\C(c1cc(Cl)cc(Cl)c1)C(F)(F)F)c1ccc(-n2cncn2)cc1", "note": "(centres unmarked) [DC68, (E)-1-(4-(4-(3,5-Dichlorophenyl)-5,5,5-trifluoropent-2-en-2-yl)phenyl)-1H-1,2,4-triazole]", "values": [{"measurement": "BAW Rating", "value": "A (50-100)"}]}
{"smiles": "FC(F)(F)C(/C=C/c1ccc(-n2cncn2)c(Br)c1)c1cc(Cl)cc(Cl)c1", "note": "(centres unmarked) [DC47]", "values": [{"measurement": "BAW Rating", "value": "A (50-100)"}]}
{"smiles": "Cc1cc(/C=C/C(c2cc(Cl)cc(Cl)c2)C(F)(F)F)cc(C#N)c1-n1cncn1", "note": "(centres unmarked) [DC44]", "values": [{"measurement": "BAW Rating", "value": "A (50-100)"}]}
{"smiles": "Cc1cc(/C=C/C(c2cc(Cl)cc(Cl)c2)C(F)(F)F)ccc1C(=O)NN(C)c1ccccc1F", "note": "(centres unmarked) [AC45]", "values": [{"measurement": "BAW Rating", "value": "A (50-100)"}]}
{"smiles": "FC(F)(F)C(/C=C/c1ccc(-n2cncn2)c(Cl)c1)c1cc(Cl)c(Cl)c(Cl)c1", "note": "(centres unmarked) [DC49]", "values": [{"measurement": "BAW Rating", "value": "A (50-100)"}]}
{"smiles": "O=C(NCc1ccc(C(F)(F)F)nc1)c1ccc(/C=C/C(c2cc(Cl)c(Cl)c(Cl)c2)C(F)(F)F)cc1Br", "note": "(centres unmarked) [AC75]", "values": [{"measurement": "BAW Rating", "value": "A (50-100)"}]}
{"smiles": "O=C(NNc1ccc(/C=C/C(c2cc(Cl)c(Cl)c(Cl)c2)C(F)(F)F)cc1)C1CC1", "note": "(centres unmarked) [CC50, (E)-N′-(4-(4,4,4-Trifluoro-3-(3,4,5-trichlorophenyl)but-1-en-1-yl)phenyl)cyclopropanecarbohydrazide]", "values": [{"measurement": "BAW Rating", "value": "A (50-100)"}]}
{"smiles": "FC(F)(F)c1cc(/C=C/C(c2cc(Cl)cc(Cl)c2)C(F)(F)F)ccc1-n1cncn1", "note": "(centres unmarked) [DC51]", "values": [{"measurement": "BAW Rating", "value": "A (50-100)"}]}
{"smiles": "O=C(CNC(=O)c1ccc(/C=C/C(c2cc(Cl)c(Cl)c(Cl)c2)C(F)(F)F)cc1Cl)NCC(F)(F)F", "note": "(centres unmarked) [AC64, (E)-2-Chloro-N-(2-oxo-2-((2,2,2-trifluoroethyl)amino)ethyl)-4-(4,4,4-trifluoro-3-(3,4,5-trichlorophenyl)but-1-en-1-yl)benzamide]", "values": [{"measurement": "BAW Rating", "value": "A (50-100)"}]}
{"smiles": "Cc1cc(/C=C/C(c2cc(Cl)c(Cl)c(Cl)c2)C(F)(F)F)ccc1C(=O)NC(C)(C)c1ccccn1", "note": "(centres unmarked) [AC27]", "values": [{"measurement": "BAW Rating", "value": "A (50-100)"}]}
{"smiles": "Cc1cc(/C=C/C(c2cc(Cl)cc(Cl)c2)C(F)(F)F)ccc1C(=O)NCc1ccc(Cl)cc1", "note": "(centres unmarked) [AC48]", "values": [{"measurement": "BAW Rating", "value": "A (50-100)"}]}
{"smiles": "Cc1cc(/C=C/C(c2cc(Cl)c(Cl)c(Cl)c2)C(F)(F)F)ccc1C(=O)NCc1ccc(Cl)nc1", "note": "(centres unmarked) [AC22]", "values": [{"measurement": "BAW Rating", "value": "A (50-100)"}]}
{"smiles": "O=C(NCc1ccc(Cl)nc1)c1ccc(/C=C/C(c2cc(Cl)c(Cl)c(Cl)c2)C(F)(F)F)cc1Br", "note": "(centres unmarked) [AC31]", "values": [{"measurement": "BAW Rating", "value": "A (50-100)"}]}
